Consider 20 substances from patent US20230338337A1, “BIOMARKERS FOR CANCER THERAPY USING MDM2 ANTAGONISTS” (OTSUKA PHARMACEUTICAL CO., LTD., priority 2019, published 2023).

Experiment [1] deals with SJSA-1 (p53 wild-type, MDM2 amplified osteosarcoma). The experiment is described as follows: Protocol A: SRB growth inhibition assay. The settings on record: read-out: SJSA-1 IC50 (μM) (Protocol A).
Experiment [2] has as its target MDM2-p53 interaction (in vitro translated MDM2) (Homo sapiens (Human), UniProt Q00987). The experiment is described as follows: MDM2-p53 interaction 96-well plate binding assay (ELISA). Particulars: for MDM2 % inhibition at 0.0010: at 0.0010 μM. Background: ELISA stands for enzyme-linked immunosorbent assay.
In a further experiment the test system is SJSA-1. Put plainly: Protocol B: CellTiter-Glo cell viability assay. The settings on record: read-out: SJSA1 IC50 (μM) (Protocol B); Protocol B.

Sequence of MDM2-p53 interaction (in vitro translated MDM2) (Q00987 whole entry): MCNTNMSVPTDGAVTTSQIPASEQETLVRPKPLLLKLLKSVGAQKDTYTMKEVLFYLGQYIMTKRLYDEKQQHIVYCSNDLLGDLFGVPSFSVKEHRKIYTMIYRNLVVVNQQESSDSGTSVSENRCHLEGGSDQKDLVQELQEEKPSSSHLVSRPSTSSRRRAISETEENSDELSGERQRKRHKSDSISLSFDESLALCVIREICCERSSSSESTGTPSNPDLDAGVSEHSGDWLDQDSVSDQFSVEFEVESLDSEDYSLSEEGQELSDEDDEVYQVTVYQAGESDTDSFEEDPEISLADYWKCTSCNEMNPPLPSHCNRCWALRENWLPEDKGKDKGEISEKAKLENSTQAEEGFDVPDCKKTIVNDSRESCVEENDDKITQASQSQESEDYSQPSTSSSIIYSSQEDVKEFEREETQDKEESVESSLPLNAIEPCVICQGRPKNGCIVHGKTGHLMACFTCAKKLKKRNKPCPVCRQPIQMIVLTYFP

The IC50 is the point on the concentration scale where inhibition reaches its midpoint. Regarding “6-{[(1R)-1-(4-chlorophenyl)-7-fluoro-3-oxo-1-[(3S)-oxolan-3-yloxy]-5-[2,2,2-trifluoro-1-hydroxy-1-(1-methyl-1H-pyrazol-4-yl)ethyl]-2,3-dihydro-1H-isoindol-2-yl]methyl}pyridine-3-carbonitrile [Example 428]”, in experiment [1], the IC50 turned out to be 0.11 µM. Also, in experiment [2], the “MDM2 % inhibition at 0.0010” value stood at 65%@0.0010.

As for “(3R)-3-(4-chlorophenyl)-2-[(5-chloropyrimidin-2-yl)methyl]-4-fluoro-6-[1-(4-fluoro-1-methylpiperidin-4-yl)-1-hydroxypropyl]-3-(2-hydroxyethoxy)-2,3-dihydro-1H-isoindol-1-one [Example 565]”, the IC50 in experiment [1] was 0.045 µM. The “MDM2 % inhibition at 0.0010” value in experiment [2] was found to be 65%@0.0010. On to “1-({[(1R)-5-[1-(1-acetylpiperidin-4-yl)-1-hydroxyethyl]-1-(4-chlorophenyl)-2-[(5-chloropyridin-2-yl)methyl]-7-fluoro-3-oxo-2,3-dihydro-1H-isoindol-1-yl]oxy}methyl)cyclopropane-1-carbonitrile [Example 301]”, for which the IC50 in experiment [1] came to 0.07 µM. For the same substance, the “MDM2 % at concentration” value in experiment [2] was 75%@0.0010. Regarding “5-{[(1R)-1-(4-chlorophenyl)-7-fluoro-5-[1-hydroxy-1-(1-methyl-1H-imidazol-4-yl)propyl]-3-oxo-1-[(3S)-oxolan-3-yloxy]-2,3-dihydro-1H-isoindol-2-yl]methyl}pyridine-2-carbonitrile [Example 431]”, the IC50 in experiment [1] was determined as 0.11 µM. For the same substance, the “MDM2 % inhibition at 0.0010” value in experiment [2] is on record as 48%@0.0010. In the case of “(3R)-3-(4-chlorophenyl)-2-[(5-chloropyrimidin-2-yl)methyl]-4-fluoro-6-[1-(4-fluoropiperidin-4-yl)-1-hydroxypropyl]-3-[(3S)-oxolan-3-yloxy]-2,3-dihydro-1H-isoindol-1-one [Example 541]”, the IC50 in experiment [1] is 0.19 µM. The “MDM2 % inhibition at 0.00030” value in experiment [2] (at 0.00030 μM) stood at 64%@0.0003. Turning to “2-{[(1R)-1-(4-chlorophenyl)-1-[(1-cyanocyclopropyl)methoxy]-7-fluoro-5-[1-(4-fluoro-1-methylpiperidin-4-yl)-1-hydroxypropyl]-3-oxo-2,3-dihydro-1H-isoindol-2-yl]methyl}pyrimidine-5-carbonitrile [Example 574]”, the IC50 in experiment [1] came to 0.021 µM. For the same substance, the “MDM2 % inhibition at 0.0010” value in experiment [2] was found to be 45%@0.0010.

For “(3R)-3-(4-chlorophenyl)-2-[(5-chloropyridin-2-yl)methyl]-4-fluoro-6-{1-hydroxy-1-[1-(2-hydroxyacetyl)piperidin-4-yl]ethyl}-3-methoxy-2,3-dihydro-1H-isoindol-1-one [Example 296]”, the IC50 in experiment [1] worked out at 0.11 µM. For the same substance, in experiment [2], the “MDM2 % at concentration” value was determined as 62%@0.0010. With “(2S)-3-{[(1R)-1-(4-Chlorophenyl)-2-[(5-chloropyridin-2-yl)methyl]-7-fluoro-5-(2-hydroxypropan-2-yl)-3-oxo-2,3-dihydro-1H-isoindol-1-yl]oxy}-2-methylpropanamide [Example 167]”, the IC50 in experiment [1] is 0.64 µM. “2-{[(1R)-1-(4-chlorophenyl)-7-fluoro-5-[(1S)-1-hydroxy-1-(1-methylpiperidin-4-yl)propyl]-3-oxo-1-[(3S)-oxolan-3-yloxy]-2,3-dihydro-1H-isoindol-2-yl]methyl}pyrimidine-5-carbonitrile [Example 557]”: the IC50 in experiment [1] worked out at 0.25 µM. For the same substance, in experiment [2], the “MDM2 % inhibition at 0.0010” value is recorded as 81%@0.0010. The like results for “(3R)-3-(4-chlorophenyl)-2-[(5-chloropyrimidin-2-yl)methyl]-4-fluoro-6-[1-hydroxy-1-(1-methyl-1H-imidazol-4-yl)propyl]-3-[(3S)-oxolan-3-yloxy]-2,3-dihydro-1H-isoindol-1-one [Example 475]” were, in that order, 0.028 µM and 71%@0.0010. The corresponding values for “(3R)-3-(4-chlorophenyl)-2-[(5-chloropyrimidin-2-yl)methyl]-4-fluoro-6-[(1S)-1-hydroxy-1-[1-(oxetan-3-yl)piperidin-4-yl]propyl]-3-methoxy-2,3-dihydro-1H-isoindol-1-one [Example 551]” are 0.031 µM and 70%@0.0010.

Turning to “(3R)-3-(4-chlorophenyl)-2-[(5-chloropyrimidin-2-yl)methyl]-4-fluoro-6-[1-(4-fluoropiperidin-4-yl)-1-hydroxypropyl]-3-methoxy-2,3-dihydro-1H-isoindol-1-one [Example 544]”, in experiment [1], the IC50 turned out to be 0.032 µM. Also, in experiment [2], the “MDM2 % inhibition at 0.0010” value was 86%@0.0010. The like results for “6-{[(1R)-1-(4-chlorophenyl)-7-fluoro-5-[1-hydroxy-1-(1-methyl-1H-imidazol-4-yl)propyl]-1-(2-methoxyethoxy)-3-oxo-2,3-dihydro-1H-isoindol-2-yl]methyl}pyridine-3-carbonitrile [Example 430]” were, in that order, 0.11 µM and 59%@0.0010. The corresponding values for “(3R)-3-(4-chlorophenyl)-2-[(5-chloropyrimidin-2-yl)methyl]-4-fluoro-6-{1-hydroxy-1-[trans-4-hydroxycyclohexyl]propyl}-3-(2-hydroxyethoxy)-2,3-dihydro-1H-isoindol-1-one [Example 517]” are 0.019 µM and 82%@0.0010.

Consider “2-{[(1R)-1-(4-chlorophenyl)-7-fluoro-5-{1-hydroxy-1-[trans-4-hydroxycyclohexyl]propyl}-1-methoxy-3-oxo-2,3-dihydro-1H-isoindol-2-yl]methyl}pyrimidine-5-carbonitrile [Example 504]”, for which, in experiment [1], the IC50 amounted to 0.039 µM. The “MDM2 % inhibition at 0.0010” value in experiment [2] turned out to be 71%@0.0010. Take “1-({[(1R)-1-(4-chlorophenyl)-2-[(4-chlorophenyl)methyl]-5-(2-hydroxypropan-2-yl)-3-oxo-2,3-dihydro-1H-isoindol-1-yl]oxy}methyl)cyclopropane-1-carboxylic acid [Example 5]”: the IC50 in experiment [1] is 0.2 µM; in experiment [2] (read-out: MDM2 IC50), 0.0038 µM. In the case of “6-{[(1R)-1-(4-chlorophenyl)-7-fluoro-5-[1-(4-fluorooxan-4-yl)-1-hydroxypropyl]-1-[(2R)-2-hydroxypropoxy]-3-oxo-2,3-dihydro-1H-isoindol-2-yl]methyl}pyridine-3-carbonitrile [Example 497]”, the half-maximal inhibitory concentration (IC50) in experiment [1] was determined as 0.039 µM. The “MDM2 % inhibition at 0.0010” value in experiment [2] came to 83%@0.0010. The like results for “6-{[(1R)-1-(4-chlorophenyl)-7-fluoro-5-{1-hydroxy-1-[trans-4-hydroxycyclohexyl]propyl}-1-methoxy-3-oxo-2,3-dihydro-1H-isoindol-2-yl]methyl}pyridine-3-carbonitrile [Example 521]” were, in that order, 0.035 µM and 77%@0.0010. Take “(3R)-3-(4-chlorophenyl)-2-[(5-chloropyrimidin-2-yl)methyl]-4-fluoro-6-[1-hydroxy-1-(1-methyl-1H-imidazol-4-yl)propyl]-3-{[1-(hydroxymethyl)cyclopropyl]methoxy}-2,3-dihydro-1H-isoindol-1-one [Example 476]”: the IC50 in the experiment with SJSA-1 came to 0.6 µM. The “MDM2 % inhibition at 0.030” value in experiment [2] (at 0.030 μM) was determined as 51%@0.030.

As for “(3R)-3-(4-chlorophenyl)-2-[(5-chloropyrimidin-2-yl)methyl]-4-fluoro-6-[1-(4-fluoropiperidin-4-yl)-1-hydroxypropyl]-3-[(2R)-2-hydroxypropoxy]-2,3-dihydro-1H-isoindol-1-one [Example 543]”, the IC50 in the experiment with SJSA-1 is 0.69 µM. Also, in experiment [2], the “MDM2 % inhibition at 0.0010” value stood at 68%@0.0010.
